Results on 23 molecules are retold here after patent US8664216B2, “Spiro-5,6-dihydro-4H-2,3,5,10b-tetraaza-benzo[e]azulenes” (Hoffmann-La Roche Inc., priority 2008, dated 2014).

pKi: −log10 of the molar value. Counter-ions that a name gives are not always drawn.

T1 sequence (P37288 whole entry): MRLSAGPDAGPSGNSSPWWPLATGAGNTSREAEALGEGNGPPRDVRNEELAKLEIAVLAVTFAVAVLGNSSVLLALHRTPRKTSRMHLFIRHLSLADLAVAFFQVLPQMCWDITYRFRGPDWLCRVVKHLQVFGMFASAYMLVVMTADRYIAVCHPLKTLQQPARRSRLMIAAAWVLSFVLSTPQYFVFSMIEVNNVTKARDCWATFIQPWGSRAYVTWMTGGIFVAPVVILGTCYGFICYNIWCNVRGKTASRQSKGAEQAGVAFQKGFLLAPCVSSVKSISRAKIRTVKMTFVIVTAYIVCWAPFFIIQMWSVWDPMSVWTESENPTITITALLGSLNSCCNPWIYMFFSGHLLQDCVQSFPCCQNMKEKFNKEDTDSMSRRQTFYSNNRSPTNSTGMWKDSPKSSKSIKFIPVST

The first test has as its target T1, human V1a receptor (Homo sapiens, UniProt P37288).
T1 construct: expressed in transfected cells; host or cells: HEK293 cells, transiently transfected; membranes prepared
Description: human V1a receptor binding studies (3H-Vasopressin SPA, membranes of transfected HEK293 cells).
Settings: not given
The protocol: The human V1a receptor was cloned by RT-PCR from total human liver RNA. The coding sequence was subcloned in an expression vector after sequencing to confirm the identity of the amplified sequence. […] Cell membranes were prepared from HEK293 cells transiently transfected with the expression vector and grown in 20 liter fermenters with the following protocol.
50 g of cells are resuspended in 30 ml freshly prepared ice cold Lysis buffer (50 mM HEPES, 1 mM EDTA, 10 mM MgCl2 adjusted to pH=7.4+complete cocktail of protease inhibitor (Roche Diagnostics)). Homogenized with Polytron for 1 min and sonicated on ice for 2×2 minutes at 80% intensity (Vibracell sonicator). The preparation is centrifuged 20 min at 500 g at 4° C., the pellet is discarded and the supernatant centrifuged 1 hour at 43,000 g at 4° C. (19,000 rpm). The pellet is resuspended in 12.5 ml Lysis buffer+12.5 ml Sucrose 20% and homogenized using a Polytron for 1-2 min. The protein concentration is determined by the Bradford method and aliquots are stored at −80° C. until use. For binding studies 60 mg Yttrium silicate SPA beads (Amersham) are mixed with an aliquot of membrane in binding buffer (50 mM Tris, 120 mM NaCl, 5 mM KCl, 2 mM CaCl2, 10 mM MgCl2) for 15 minutes with mixing. 50 μl of bead/membrane mixture is then added to each well of a 96 well plate, followed by 50 μl of 4 nM 3H-Vasopressin (American Radiolabeled Chemicals). For total binding measurement 100 μl of binding buffer are added to the respective wells, for non-specific binding 100 μl of […] cold vasopressin and for compound testing 100 μl of a serial dilution of each compound in 2% DMSO. The plate is incubated 1 h at room temperature, centrifuged 1 min at 1000 g and counted on a Packard Top-Count. Non-specific binding counts are subtracted from each well and data is normalized to the maximum specific binding set at 100%. To calculate an IC 50 the curve is fitted using a non-linear regression model (XLfit) and the Ki is calculated using the Cheng-Prussoff equation.
As for `Clc1ccc2c(c1)CN(Cc1ccccn1)Cc1nnc(N3CCC4(CC3)OCc3ccccc34)n1-2` [Example 12, 8-Chloro-5-(pyridin-2-ylmethyl)-1-(1′H,3H-spiro[2-benzofuran-1,4′-piperidin]-1′-yl)-5,6-dihydro-4H-[1,2,4]triazolo[4,3-a][1,4]benzodiazepine], the pKi (as a rule, the Ki on a negative log10 scale, so that one unit is a factor of ten) is 8.74. Still for that read-out and setting: under `Clc1ccc2c(c1)CNCc1nnc([C@H]3CC[C@]4(CC3)OCc3ccccc34)n1-2` [Example 5, 8-Chloro-1-[(1s,4′s)-3H-spiro[2-benzofuran-1,1′-cyclohexan]-4′-yl]-5,6-dihydro-4H-[1,2,4]triazolo[4,3-a][1,4]benzodiazepine hydrochloride] stands 7.79; under `CN1Cc2cc(Cl)ccc2-n2c(nnc2N2CCC3(CC2)OC(=O)c2ccccc23)C1` [Example 27, 1′-(8-Chloro-5-methyl-5,6-dihydro-4H-[1,2,4]triazolo[4,3-a][1,4]benzodiazepin-1-yl)-3H-spiro[2-benzofuran-1,4′-piperidin]-3-one], 7.91; under `CC(C)(C)OC(=O)N1Cc2cc(Cl)ccc2-n2c(nnc2[C@H]2CC[C@@]3(CC2)OCc2ccccc23)C1` [Example 1, tert-Butyl 8-chloro-1-[(1r,4′r)-3H-spiro[2-benzofuran-1,1′-cyclohexan]-4′-yl]-4H-[1,2,4]triazolo[4,3-a][1,4]benzodiazepine-5(6H)-carboxylate], 8.34.

With `CN1Cc2cc(Cl)ccc2-n2c(nnc2[C@H]2CC[C@@]3(CC2)OCc2ccccc23)C1` [Example 3, 8-Chloro-5-methyl-1-[(1r,4′r)-3H-spiro[2-benzofuran-1,1′-cyclohexan]-4′-yl]-5,6-dihydro-4H-[1,2,4]triazolo[4,3-a][1,4]benzodiazepine], the pKi is 8.55. The molecule `CN1Cc2cc(Cl)ccc2-n2c(nnc2N2CCC3(CC2)COCc2ccccc23)C1` [Example 32, 1′-(8-Chloro-5-methyl-5,6-dihydro-4H-[1,2,4]triazolo[4,3-a][1,4]benzodiazepin-1-yl)-1H-spiro[isochromene-4,4′-piperidine]] had a pKi of 8.66.

With `CN1Cc2cc(Cl)ccc2-n2c(nnc2N2CCC3(CC2)OCc2ccccc23)C1` [Example 9, 8-Chloro-5-methyl-1-(1′H,3H-spiro[2-benzofuran-1,4′-piperidin]-1′-yl)-5,6-dihydro-4H-[1,2,4]triazolo[4,3-a][1,4]benzodiazepine], the pKi is 8.62. The same measure, in the same setting: the same measure for `CN1Cc2cc(Cl)ccc2-n2c(nnc2N2CCC3(CC2)c2ccccc2CS3(=O)=O)C1` [Example 31, 8-Chloro-1-(2,2-dioxido-1′H,3H-spiro[2-benzothiophene-1,4′-piperidin]-1′-yl)-5-methyl-5,6-dihydro-4H-[1,2,4]triazolo[4,3-a][1,4]benzodiazepine]: 7.32; for `Clc1ccc2c(c1)CNCc1nnc([C@H]3CC[C@@]4(CC3)OCc3ccccc34)n1-2` [Example 2, 8-Chloro-1-[(1r,4′r)-3H-spiro[2-benzofuran-1,1′-cyclohexan]-4′-yl]-5,6-dihydro-4H-[1,2,4]triazolo[4,3-a][1,4]benzodiazepine hydrochloride]: 7.40; for `CN1Cc2cc(Cl)ccc2-n2c(nnc2N2CCC3(CC2)SCc2ccccc23)C1` [Example 29]: 8.76.

Molecule `CN1Cc2cc(Cl)ccc2-n2c(nnc2N2CCC3(CC2)OCCc2ccccc23)C1` [Example 35, 1′-(8-Chloro-5-methyl-5,6-dihydro-4H-[1,2,4]triazolo[4,3-a][1,4]benzodiazepin-1-yl)-3,4-dihydrospiro[isochromene-1,4′-piperidine]] had a pKi of 7.98.

The same test, now with this note: 3H-Vasopressin displacement, HEK293 cell membranes, Ki calculated from IC50 by Cheng-Prussoff equation; read-out: pKi hV1a (converted).
As for `CN1Cc2cc(Cl)ccc2-n2c(nnc2N2CCC[C@]3(CC2)OCc2ccccc23)C1` [Example 37, (−)-1-(8-Chloro-5-methyl-5,6-dihydro-4H-[1,2,4]triazolo[4,3-a][1,4]benzodiazepin-1-yl)-3′H-spiro[azepane-4,1′-[2]benzofuran]], the Ki was 5.01 nM. Still for that read-out and setting: under `CC1OC2(CCN(c3nnc4n3-c3ccc(Cl)cc3CN(C(=O)OC(C)(C)C)C4)CC2)c2ccccc21` (racemic) [Example 24, (RS)-tert-Butyl 8-chloro-1-(3-methyl-1′H,3H-spiro[2-benzofuran-1,4′-piperidin]-1′-yl)-4H-[1,2,4]triazolo[4,3-a][1,4]benzodiazepine-5(6H)-carboxylate] stands 10.7 nM; under `CN1Cc2cc(Cl)ccc2-n2c(nnc2N2CCC[C@@]3(CC2)OCc2ccccc23)C1` [Example 36, (+)-1-(8-Chloro-5-methyl-5,6-dihydro-4H-[1,2,4]triazolo[4,3-a][1,4]benzodiazepin-1-yl)-3′H-spiro[azepane-4,1′-[2]benzofuran]], 1.45 nM. In the case of `CC(C)(C)OC(=O)N1Cc2cc(Cl)ccc2-n2c(nnc2N2CCC3(CC2)OCc2ccc(F)cc23)C1` [Example 17, tert-Butyl 8-chloro-1-(6-fluoro-1′H,3H-spiro[2-benzofuran-1,4′-piperidin]-1′-yl)-4H-[1,2,4]triazolo[4,3-a][1,4]benzodiazepine-5(6H)-carboxylate], the Ki was 10.2 nM. Still for that read-out and setting: under `CC(=O)N1Cc2cc(Cl)ccc2-n2c(nnc2N2CCC3(CC2)OCc2ccccc23)C1` [Example 15] stands 4.17 nM. `CC1OC2(CCN(c3nnc4n3-c3ccc(Cl)cc3CN(C)C4)CC2)c2ccccc21` (racemic) [Example 26, (RS)-8-Chloro-5-methyl-1-(3-methyl-1′H,3H-spiro[2-benzofuran-1,4′-piperidin]-1′-yl)-5,6-dihydro-4H-[1,2,4]triazolo[4,3-a][1,4]benzodiazepine]: the Ki is 4.79 nM. Still for that read-out and setting: under `CN1Cc2cc(Cl)ccc2-n2c(nnc2N2CCC3(CC2)OCc2cccc(F)c23)C1` [Example 22, 8-Chloro-1-(7-fluoro-1′H,3H-spiro[2-benzofuran-1,4′-piperidin]-1′-yl)-5-methyl-5,6-dihydro-4H-[1,2,4]triazolo[4,3-a][1,4]benzodiazepine] stands 3.98 nM; under `CN1Cc2cc(Cl)ccc2-n2c(nnc2N2CCC3(CC2)OCc2ccc(F)cc23)C1` [Example 19, 8-Chloro-1-(6-fluoro-1′H,3H-spiro[2-benzofuran-1,4′-piperidin]-1′-yl)-5-methyl-5,6-dihydro-4H-[1,2,4]triazolo[4,3-a][1,4]benzodiazepine], 7.59 nM. Consider `CC(C)N1Cc2cc(Cl)ccc2-n2c(nnc2N2CCC3(CC2)OCc2ccccc23)C1` [Example 10, 8-Chloro-5-isopropyl-1-(1′H,3H-spiro[2-benzofuran-1,4′-piperidin]-1′-yl)-5,6-dihydro-4H-[1,2,4]triazolo[4,3-a][1,4]benzodiazepine], for which the Ki is 1.82 nM.

`CC(C)(C)OC(=O)N1Cc2cc(Cl)ccc2-n2c(nnc2N2CCC3(CC2)OCc2ccccc23)C1` [Example 7, tert-Butyl 8-chloro-1-(1′H,3H-spiro[2-benzofuran-1,4′-piperidin]-1′-yl)-4H-[1,2,4]triazolo[4,3-a][1,4]benzodiazepine-5(6H)-carboxylate]: the Ki was 4.47 nM. Still for that read-out and setting: the same measure for `CN1Cc2cc(Cl)ccc2-n2c(nnc2N2CCC3(CC2)OCc2cc(F)ccc23)C1` [Example 23, 8-Chloro-1-(5-fluoro-1′H,3H-spiro[2-benzofuran-1,4′-piperidin]-1′-yl)-5-methyl-5,6-dihydro-4H-[1,2,4]triazolo[4,3-a][1,4]benzodiazepine]: 2.09 nM; for `CN(C)CC(=O)N1Cc2cc(Cl)ccc2-n2c(nnc2N2CCC3(CC2)OCc2ccccc23)C1` [Example 16, 2-[8-Chloro-1-(1′H,3H-spiro[2-benzofuran-1,4′-piperidin]-1′-yl)-4H-[1,2,4]triazolo[4,3-a][1,4]benzodiazepin-5(6H)-yl]-N,N-dimethyl-2-oxoethanamine]: 6.76 nM.
